Assay results taken from patent US12649712B2, “Indene compounds, pharmaceutical compositions thereof, and their therapeutic applications” (NucMito Pharmaceuticals Co. Ltd., priority 2020, dated 2026).

system: alpha-smooth muscle actin (α-SMA); test: Inhibition of TGF-β induced expression of alpha-smooth muscle actin (α-SMA) in CFSC cells, western blot; type: cell-based; settings: compound at 10 μM, TGF-β (10 ng/mL), 24 hours, decrease in band intensity vs TGF-β only
Experimental: The ability of a compound to inhibit the TGF-β induced expression of alpha-smooth muscle actin (α-SMA) was evaluated in CCL4-treated fat storing (CFSC) cells. α-SMA is considered as a reliable marker of hepatic stellate cell activation and a key biomarker for liver fibrosis. See, e.g., Meng et al., Nat. Rev. Nephrol. 2016, 12, 325-38; Fabregat et al., FEBS J. 2016, 283, 2219-32.
CFSC cells maintained in a DMEM medium supplemented with 10% fetal bovine serum were seeded to 12-well culture dishes and grown to a confluence of 60-70% the next day. Culture was changed to a serum-free DMEM medium and treated with a compound at 10 μM in the presence of TGF-β (10 ng/mL). The cells were incubated for another 24 hours. All culture was maintained at 37° C. in 5% carbon dioxide.
A NP-40 lysate solution (50 mM Tris (pH 7.4), 150 mM NaCl, 1% NP-40) with EDTA free cocktail added was used to lyse the cells on ice for 30 min. The lysate was collected and centrifuged at 4° C. for 10 min at 12,000 rpm. The pellet was discarded and the supernatant was transferred to a new tube. Cell lysates were loaded with 5×loading buffer and boiled for 10 min, resolved by 10% SDS-polyacrylamide gel electrophoresis (SDS-PAGE), and transferred to PVDF membrane. The membrane was blocked with 5% skim milk in Tris-buffered saline and TWEEN® 20 (TBST; 10 mM Tris-HCl (pH 8.0), 150 mM NaCl, 0.1% TWEEN® 20) for 1 h at room temperature and then incubated with α-SMA and […] antibodies overnight at 4° C. After washing twice with TBST, the membrane was probed with a horseradish […] anti-immunoglobulin (1:5000 dilution) for 1 h at room temperature. After two subsequent rinses in TBST, immunoreactive products were reacted with ECL and visualized by a UVP CHEMSTUDIO™ imaging system. The western blotting bands are quantitated using an ImageJ software. The percentage of inhibition was obtained by calculating the percentage decrease in the band intensity compared to the one treated with TGF-β only.
The results are summarized in Table 1, wherein A represents a value no less of 90% inhibition, B represents a value less than 90% but no less than 80% inhibition, C represents a value less than 80% but no less than 70% inhibition, D represents a value less than 70% but no less than 50% inhibition, and E represents a value less than 50% with a compound at 10 μM.

Row | SMILES | inhibition at 10 µM
1 | CC1=C(CC(=O)O)c2cc(F)ccc2/C1=C\c1ccc(Oc2ccccc2)cc1 [Compound A1, 2-[(1Z)-5-Fluoro-2-methyl-1-[(4-phenoxyphenyl)methylidene]-1H-inden-3-yl]acetic acid] | > 90%
2 | COc1ccc(Oc2ccc(/C=C3/C(C)=C(CC(=O)O)c4cc(F)ccc43)cc2)cc1 [Compound A2, 2-[(1Z)-5-Fluoro-1-{[4-(4-methoxyphenoxy)phenyl]methylidene}-2-methyl-1H-inden-3-yl]acetic acid] | > 90%
3 | CC1=C(CC(=O)O)c2cc(F)ccc2/C1=C\c1ccc(Oc2cccc(C(F)(F)F)c2)cc1Cl [Compound A3, 2-[(1Z)-1-({2-Chloro-4-[3-(trifluoromethyl)phenoxy]phenyl}methylidene)-5-fluoro-2-methyl-1H-inden-3-yl]acetic acid] | > 90%
4 | CC1=C(CC(=O)O)c2cc(F)ccc2/C1=C\c1ccc(Oc2ccc(C)cc2)cc1 [Compound A4, 2-[(1Z)-5-Fluoro-2-methyl-1-{[4-(4-methylphenoxy)phenyl]methylidene}-1H-inden-3-yl]acetic acid] | > 90%
5 | CC1=C(CC(=O)O)c2cc(F)ccc2/C1=C\c1ccc(Oc2ccc(C(C)C)cc2)cc1 [Compound A5, 2-[(1Z)-5-Fluoro-2-methyl-1-({4-[4-(propan-2-yl)phenoxy]phenyl}methylidene)-1H-inden-3-yl]acetic acid] | > 90%
6 | CC1=C(CC(=O)O)c2cc(F)ccc2/C1=C\c1ccc(Oc2ccc(Br)cc2)cc1 [Compound A6, 2-[(1Z)-1-{[4-(4-Bromophenoxy)phenyl]methylidene}-5-fluoro-2-methyl-1H-inden-3-yl]acetic acid] | > 90%
7 | CC1=C(CC(=O)O)c2cc(F)ccc2/C1=C\c1ccc(Oc2cccc(C)c2)cc1 [Compound A7, 2-[(1Z)-5-Fluoro-2-methyl-1-{[4-(3-methylphenoxy)phenyl]methylidene}-1H-inden-3-yl]acetic acid] | > 90%
8 | CC1=C(CC(=O)O)c2cc(F)ccc2/C1=C\c1ccc(Oc2cccc(C(F)(F)F)c2)cc1 [Compound A9, (Z)-2-(5-Fluoro-2-methyl-1-(4-(3-(trifluoromethyl)phenoxy)benzylidene)-1H-inden-3-yl)acetic acid] | > 90%
9 | CCc1ccc(Oc2ccc(/C=C3/C(C)=C(CC(=O)O)c4cc(F)ccc43)cc2)cc1 [Compound A10, 2-[(1Z)-1-{[4-(4-Ethylphenoxy)phenyl]methylidene}-5-fluoro-2-methyl-1H-inden-3-yl]acetic acid] | > 90%
10 | COc1ccc(Oc2ccc(/C=C3/C(C)=C(CC(=O)O)c4cc(F)ccc43)c(Cl)c2)cc1 [Compound A12, 2-[(1Z)-1-{[2-Chloro-4-(4-methoxyphenoxy)phenyl]methylidene}-5-fluoro-2-methyl-1H-inden-3-yl]acetic acid] | > 90%
11 | COc1cc(Oc2ccc(C(C)C)cc2)ccc1/C=C1/C(C)=C(CC(=O)O)c2cc(F)ccc21 [Compound A13, 2-[(1Z)-5-Fluoro-1-({2-methoxy-4-[4-(propan-2-yl)phenoxy]phenyl}-methylidene)-2-methyl-1H-inden-3-yl]acetic acid] | < 50%
12 | CC1=C(CC(=O)O)c2cc(F)ccc2/C1=C\c1ccc(Oc2ccc3ccccc3c2)cc1 [Compound A14, 2-[(1Z)-5-Fluoro-2-methyl-1-{[4-(naphthalen-2-yloxy)phenyl]methylidene}-1H-inden-3-yl]acetic acid] | > 90%
13 | CC1=C(CC(=O)O)c2cc(F)ccc2/C1=C\c1ccc(Oc2ccc(C(C)C)cc2)cc1Cl [Compound A15, 2-[(1Z)-1-({2-Chloro-4-[4-(propan-2-yl)phenoxy]phenyl}methylidene)-5-fluoro-2-methyl-1H-inden-3-yl]acetic acid] | 80 to 90%
14 | CC1=C(CC(=O)O)c2cc(F)ccc2/C1=C\c1ccc(Oc2ccc(F)cc2F)cc1 [Compound A16, 2-[(1Z)-1-{[4-(2,4-Difluorophenoxy)phenyl]methylidene}-5-fluoro-2-methyl-1H-inden-3-yl]acetic acid] | > 90%
15 | CC1=C(CC(=O)O)c2cc(F)ccc2/C1=C\c1ccc(Oc2ccc(F)cc2Br)cc1 [Compound A17, 2-[(1Z)-1-{[4-(2-bromo-4-fluorophenoxy)phenyl]methylidene}-5-fluoro-2-methyl-1H-inden-3-yl]acetic acid] | > 90%
16 | CC1=C(CC(=O)O)c2cc(F)ccc2/C1=C\c1ccc(Oc2cc(F)c(F)cc2F)cc1 [Compound A18, 2-[(1Z)-5-Fluoro-2-methyl-1-{[4-(2,4,5-trifluorophenoxy)phenyl]methylidene}-1H-inden-3-yl]acetic acid] | 70 to 80%
17 | CC1=C(CCC(=O)O)c2ccccc2/C1=C\c1ccc(Oc2ccc(F)cc2)cc1 [Compound A19, 3-[(1Z)-1-{[4-(4-Fluorophenoxy)phenyl]methylidene}-2-methyl-1H-inden-3-yl]propanoic acid] | > 90%
18 | CC1=C(CC(=O)O)c2cc(F)ccc2/C1=C\c1ccc(Oc2ccc(F)nc2)cc1 [Compound A20, 2-[(1Z)-5-Fluoro-1-({4-[(6-fluoropyridin-3-yl)oxy]phenyl}methylidene)-2-methyl-1H-inden-3-yl]acetic acid] | < 50%
19 | CC1=C(CC(=O)O)c2cc(F)ccc2/C1=C\c1ccc(Oc2cnc(F)c(C)c2)cc1 [Compound A21, 2-[(1Z)-5-Fluoro-1-({4-[(6-fluoro-5-methylpyridin-3-yl)oxy]phenyl}-methylidene)-2-methyl-1H-inden-3-yl]acetic acid] | 80 to 90%
20 | CC1=C(CC(=O)O)c2cc(F)ccc2/C1=C\c1ccc(Oc2cccc3ncccc23)cc1 [Compound A22, (Z)-2-(5-Fluoro-2-methyl-1-(4-(quinolin-5-yloxy)benzylidene)-1H-inden-3-yl)acetic acid] | 50 to 70%
21 | CC1=C(CC(=O)NO)c2cc(F)ccc2/C1=C\c1ccc(Oc2ccccc2)cc1 [Compound A23, 2-[(1Z)-5-Fluoro-2-methyl-1-[(4-phenoxyphenyl)methylidene]-1H-inden-3-yl]-N-hydroxyacetamide] | > 90%
22 | CC1=C(CC(=O)NO)c2cc(F)ccc2/C1=C\c1ccc(Oc2ccc(F)cc2)cc1 [Compound A24, 2-[(1Z)-5-Fluoro-1-{[4-(4-fluorophenoxy)phenyl]methylidene}-2-methyl-1H-inden-3-yl]-N-hydroxyacetamide] | 80 to 90%
23 | CC1=C(CC(N)=O)c2cc(F)ccc2/C1=C\c1ccc(Oc2ccc(F)cc2)cc1 [Compound A25, 2-[(1Z)-5-Fluoro-1-{[4-(4-fluorophenoxy)phenyl]methylidene}-2-methyl-1H-inden-3-yl]acetamide] | 70 to 80%
24 | CNC(=O)CC1=C(C)/C(=C/c2ccc(Oc3ccc(F)cc3)cc2)c2ccc(F)cc21 [Compound A26, 2-[(1Z)-5-Fluoro-1-{[4-(4-fluorophenoxy)phenyl]methylidene}-2-methyl-1H-inden-3-yl]-N-methylacetamide] | 70 to 80%
25 | CC1=C(CC(=O)NCCO)c2cc(F)ccc2/C1=C\c1ccc(Oc2ccc(F)cc2)cc1 [Compound A27, 2-[(1Z)-5-Fluoro-1-{[4-(4-fluorophenoxy)phenyl]methylidene}-2-methyl-1H-inden-3-yl]-N-(2-hydroxyethyl)acetamide] | 80 to 90%
26 | CC1=C(CC(=O)O)c2cc(F)ccc2/C1=C\c1ccc(N(C)c2ccccc2)cc1 [Compound A29, 2-[(1Z)-5-Fluoro-2-methyl-1-({4-[methyl(phenyl)amino]phenyl}methylidene)-1H-inden-3-yl]acetic acid] | 70 to 80%
27 | CC1=C(CC(=O)O)c2cc(F)ccc2/C1=C\c1ccc(N(Cc2ccccc2)c2ccc(F)cc2)cc1 [Compound A30, 2-[(1Z)-1-({4-[Benzyl(4-fluorophenyl)amino]phenyl}methylidene)-5-fluoro-2-methyl-1H-inden-3-yl]acetic acid] | 70 to 80%
28 | CC1=C(CC(=O)O)c2cc(F)ccc2/C1=C\c1ccc(N(C)c2ccc(F)cc2)cc1 [Compound A31, 2-[(1Z)-5-Fluoro-1-({4-[(4-fluorophenyl)(methyl)amino]phenyl}methylidene)-2-methyl-1H-inden-3-yl]acetic acid] | > 90%
29 | CCN(c1ccc(F)cc1)c1ccc(/C=C2/C(C)=C(CC(=O)O)c3cc(F)ccc32)cc1 [Compound A32, 2-[(1Z)-1-({4-[Ethyl(4-fluorophenyl)amino]phenyl}methylidene)-5-fluoro-2-methyl-1H-inden-3-yl]acetic acid] | > 90%
